Experimental findings from patent US20040242459A1 (priority 2001, published 2004) are described below.

In assay [1] the target is T1, hPPARγ/GAL4 (Homo sapiens, UniProt P37231).
T1 construct: expressed in transfected cells; host or cells: COS-1 cells
In words: Gal-4 hPPAR transactivation assay in COS-1 cells (gamma). It counts as cell-based. The following applies: two values separated by a slash in some cells. On the procedure:
The chimeric receptor expression constructs, pcDNA3-hPPARγ/GAL4, pcDNA3-hPPARδ/GAL4, pcDNA3-hPPARα/GAL4 were prepared by inserting the yeast GAL4 transcription factor DBD adjacent to the ligand binding domains (LBDs) of hPPARγ, hPPARδ, hPPARα, respectively. The reporter construct, pUAS(5×)-tk-luc was generated by inserting 5 copies of the GAL4 response element upstream of the herpes virus minimal thymidine kinase promoter and the luciferase reporter gene. pCMV-lacZ contains the galactosidase Z gene under the regulation of the cytomegalovirus promoter. COS-1 cells were seeded at 12×10^3 cells/well in 96 well cell culture plates in high glucose Dulbecco's modified Eagle medium (DMEM) containing 10% charcoal stripped fetal calf serum (Gemini Bio-Products, Calabasas, Calif.), nonessential amino acids, 100 units/ml Penicillin G and […] Streptomycin sulfate at 37° C. in a humidified atmosphere of 10% CO2. After 24 h, transfections were performed with Lipofectamine (GIBCO BRL, Gaithersburg, Md.) according to the instructions of the manufacturer. […] Luciferase activity in cell extracts was determined using Luciferase Assay Buffer (Promega, Madison, Wis.) in an ML3000 luminometer (Dynatech Laboratories, Chantilly, Va.). β-galactosidase activity was determined using β-D-galactopyranoside (Calbiochem, San Diego, Calif.).

Assay [2] concerns adjuvant-induced arthritis in female Lewis rats. Here is the method: Nine groups of 10 rats each were injected with an emulsion containing 0.5 mg of Mycobacterium butyricum in 0.1 ml of light mineral oil, and a negative control group of 10 rats was not injected with adjuvant. Body weights, primary (injected) and contralateral (non-injected) paw volumes (determined by mercury displacement plethysmography) and lateral radiographs (obtained under Ketamine and Xylazine anesthesia) were determined before (day-1) and at various time points including 21 days following adjuvant injection. The rats were anesthetized with an intramuscular injection of 0.03-0.1 ml of a combination of Ketamine (87 mg/kg) and Xylazine (13 mg/kg) for radiographs and injection of adjuvant. Lateral to medial radiographs were made of both hind paws on days 0 and 21 for using the Faxitron (45 kVp, 30 seconds or 45 kVp, 1 second) and Kodak X-OMAT TL film, and were developed in an automatic processor. […] Specific criteria were used to establish the numerical grade of severity for each radiographic change. The maximum possible score per foot was 26. Compounds or vehicle were administered prophylactically beginning post injection of adjuvant and continuing for 21 days. The Compounds were prepared weekly, refrigerated in the dark until used, and vortex mixed immediately prior to administration. […] The liver, thymus and spleens of all rats were removed and weighed and both hind paws were removed and radiographed.
Two-factor (‘treatment’ and ‘time’) analysis of variance with repeated measures on ‘time’ were applied to the percent changes for body weight and foot volumes and to the rank-transformed radiographic total scores. A post hoc Dunnett's test was conducted to compare the effect of treatments to vehicle. A one-way analysis of variance was applied to the thymic and spleen weights followed by the Dunnett's test to compare the effect of treatments to vehicle.
Compounds or vehicle (0.5% Methocel in sterile water) were administered by oral gavage once daily for 21 days following induction of arthritis in female Lewis rats via the sub plantar injection of 0.1 ml of light mineral oil containing 0.5 mg of Mycobacterium butyricum. Control animals were not injected with adjuvant. Body weights were measured 1 day prior to (i.e. day 0) and at 14 and 21 days post induction of arthritis. The data in Table 1 represent the mean increase or decrease in body weight ±1 standard deviation for groups of 9 to 10 animals.
Compounds or vehicle (0.5% Methocel in sterile water) were administered by oral gavage once daily for 21 days following induction of arthritis in female Lewis rats via the sub plantar injection of 0.1 ml of light mineral oil containing 0.5 mg of Mycobacterium butyricum. Control animals were not injected with adjuvant.
Injected foot volumes were measured by mercury displacement plethysmography prior to induction of arthritis, and on days 4, 14 and 21 post induction of arthritis. The data represent the mean increase in foot volume ±1 standard deviation for groups of 9 to 10 animals. The extent of paw swelling in compound-treated animals was compared to the mean of that in the vehicle-treated group, and percentage inhibition was calculated for each dose level of compound.
Contralateral foot volumes were measured by mercury displacement plethysmography prior to, and at days 14 and 21 post induction of arthritis. The data represent the mean increase in foot volume ±1 standard deviation for groups of 9 to 10 animals. The extent of paw swelling in compound-treated animals was compared to the mean of that in the vehicle-treated group, and percentage inhibition was calculated for each dose level of compound.
[…] Data represent the mean weights of organs in mg ±1 standard deviation for groups of 9 to 10 animals.
Total radiographic scores were derived from examination of lateral radiographs obtained prior to, and on day 21 post induction of arthritis.

The mark [3] stands for this setting: injected paw, same doses p.o. q.d.
Setting [4] is: weight at necropsy, day of euthanasia 21 (Compound 1, indomethacin) or 15 (Compounds 2-6), mean ± SD.

Molecules are shown by their SMILES. “And” between values parts separate entries of the source, which are not always exact repeats. Equal values may be shown once. Marks after values point to notes of the source that are not given here.

One may read the EC50 as the concentration that produces a half-maximal response.

T1 sequence (P37231 238-503 limits assumed): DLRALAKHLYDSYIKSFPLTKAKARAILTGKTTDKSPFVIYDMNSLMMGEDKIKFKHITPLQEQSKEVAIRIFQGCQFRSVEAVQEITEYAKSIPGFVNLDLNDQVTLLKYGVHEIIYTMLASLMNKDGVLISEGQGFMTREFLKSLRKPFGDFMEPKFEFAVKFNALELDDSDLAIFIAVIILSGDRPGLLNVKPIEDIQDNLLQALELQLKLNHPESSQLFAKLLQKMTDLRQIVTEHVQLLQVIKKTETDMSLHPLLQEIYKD
T1 sequence (P04386 1-147 partner limits assumed): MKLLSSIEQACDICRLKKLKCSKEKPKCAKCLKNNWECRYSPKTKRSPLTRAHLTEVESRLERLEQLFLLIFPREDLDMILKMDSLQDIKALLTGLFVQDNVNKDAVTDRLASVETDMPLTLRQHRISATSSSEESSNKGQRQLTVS

Consider `CCCc1cc(Oc2ccccc2)ccc1OCCc1cc2cc(CC(=O)O)ccc2[nH]1` [Compound 2, {2-[2-(4-phenoxy-2-propylphenoxy)ethyl]-1H-indol-5-yl}acetic acid], for which the EC50 in assay [1] is 0.18 µM and 0.05 µM. Further, the “Change in Secondary Foot Volume Day 14-0” value in assay [2] (contralateral paw, p.o. q.d., Compounds 1, 2, 4, 6 30 mg/kg/day, Compound 3 50, Compound 5 100, indomethacin 2, mean ± SD) worked out at 786 ± 220 µL. Also, the “Secondary Foot Volume % Inhibition Compared to Vehicle Day 14-0” value in assay [2] (contralateral paw, same doses p.o. q.d.) is recorded as 0%. Also, the “Change in Primary Foot Volume Day 4-0” value in assay [2] (injected paw, p.o. q.d., Compounds 1, 2, 4, 6 30 mg/kg/day, Compound 3 50, Compound 5 100, indomethacin 2, mean ± SD) worked out at 1642 ± 386 µL. Besides, in assay [2] (setting [3]), the “Primary Foot Volume % Inhibition Compared to Vehicle Day 4-0” value turned out to be 18.6% and the “Primary Foot Volume % Inhibition Compared to Vehicle Day 14-0” value is listed as 21.3%. Moreover, the “Change in Primary Foot Volume Day 14-0” value in assay [2] (injected paw, same doses p.o. q.d., mean ± SD) was 1875 ± 418 µL. Further, the “change in body weight Day 14-0” value in assay [2] (p.o. q.d., Compounds 1, 2, 4, 6 30 mg/kg/day, Compound 3 50, Compound 5 100, indomethacin 2 mg/kg/day, mean ± SD) was 0.8 ± 7.3**^++ grams. Also, the “prevention of swelling of primary or secondary paws” value in assay [2] (up to day 14, rats then euthanized) is listed as “failed to prevent swelling of either the primary or secondary paws”. In assay [2] (setting [4]), the “Spleen” value turned out to be 590.8 ± 82.1 mg and the “Thymus” value amounted to 168.7 ± 44.6 mg.
